Here are results for two compounds from patent EP0114750A2, “Beta-lactam antibacterial agents” (BEECHAM GROUP PLC, priority 1983, dated 1984).

Structures can show the parent of a compound that is named as a salt. Where two headings read alike, the source gives them in different places.

The subject of the assay is P. mirabilis 889. As to the kind of experiment: MIC, antibacterial activity. The class given is cell-based. As to conditions: Proteus mirabilis.

Consider `CCN1CCN(C(=O)N[C@@H](C(=O)N[C@]2(NC=O)C(=O)N3C(C(=O)O)=C(CSc4nnnn4CC(N)=O)CS[C@@H]32)c2ccc(OC(C)=O)c(OC(C)=O)c2)C(=O)C1=O` [Example 14, Sodium 3-[(1-carbamoylmethyl-1H-tetrazol-5-yl)thiomethyl]-7β-[D-2-(3,4-diacetoxyphenyl)-2-[(4-ethyl-2,3-dioxopiperazin-1-yl)carbonylamino]acetamido)-7α-formamidoceph-3-em-4-carboxylate], for which the MIC (usually the lowest concentration that inhibits growth of the organism) (889, strain number not given, read-out: MIC against P.mirabilis) was found to be 0.12 µg/mL. Turning to `CCN1CCN(C(=O)N[C@@H](C(=O)N[C@]2(NC=O)C(=O)N3C(C(=O)O)=C(CSc4nnnn4CC(N)=O)CS[C@@H]32)c2ccccc2)C(=O)C1=O` [Example 13, 3-[1-carbamoylmethyl-1H-tetrazol-5-yl)thiomethyl]-7β-[2-[(4-ethyl-2,3-dioxopiperazin-1-yl)-carbonylamino]-2-phenyl-acetamido]-7a-formamidoceph-3-em-4-carboxylic acid, sodium salt], the minimum inhibitory concentration (MIC) (strain P. mirabilis 889, read-out: MIC against P. mirabilis 889) was 0.12 µg/mL.
